Measurements reported in patent publication US20250228239A1, “MOLECULES HAVING PESTICIDAL UTILITY, AND INTERMEDIATES, COMPOSITIONS, AND PROCESSES, RELATED THERETO” (priority 2024, published 2025).
Where two headings read alike, the source gives them in different places.

Key:
[1] = test system: Cabbage Looper (Trichoplusia ni, TRIPNI); assay: Bioassays on Cabbage Looper (CL), 128-well diet tray assay; assay type: in vivo; details: Trichoplusia ni; for mortality at 50 µg/cm2: 168 h, second instar larvae, 50 μg/cm^2 of test molecule on artificial diet, 25° C., five to seven days, average of eight wells, read-out: CL % Control (or Mortality) rating
In short: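 Percent mortality, averaged across eight replicate wells, after second-instar larvae (1–5 per well) fed for five to seven days on diet dosed at 50 μg/cm^2. Compound was applied in acetone-water 90:10 and dried; trays kept vented at 25° C under 14:10 photoperiod.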

[2] = test system: Beet Armyworm (Spodoptera exigua, LAPHEG); assay: Bioassays on Beet Armyworm (BAW), 128-well diet tray assay; assay type: in vivo; details: Spodoptera exigua; for mortality at 50 µg/cm2: 168 h, second instar larvae, 50 μg/cm^2 of test molecule on artificial diet, 25° C., five to seven days, average of eight wells, read-out: BAW % Control (or Mortality) rating
In short: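 Diet-overlay assay: 50 μg/cm^2 compound applied in 90:10 acetone-water to artificial diet, allowed to dry, then infested with 1–5 L2 larvae/well; 8 wells/compound; covered, vented; 25° C., 14:10 L:D, 5–7 d; % mortality per well, averaged.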

[3] = Cabbage Looper, Table ABC / ABC-DP rating, read-out: CL rating
[4] = Beet Armyworm, Table ABC / ABC-DP rating, read-out: BAW rating
[5] = Table ABC: Biological Results, species CL, read-out: CL
[6] = Table ABC: Biological Results, species BAW, read-out: BAW

| SMILES | pest or weed control at 50 µg/cm2 [1, 3] [%] | pest or weed control at 50 µg/cm2 [2, 4] [%] | mortality at 50 µg/cm2 [1] [%] | mortality at 50 µg/cm2 [2] [%] | pest or weed control at 50 µg/cm2 [1, 5] [%] | pest or weed control at 50 µg/cm2 [2, 6] [%] |
| --- | --- | --- | --- | --- | --- | --- |
| CC(C)NC(=O)NNC(=O)c1cc(NC(=O)[C@H]2[C@H](c3cc(Cl)cc(Cl)c3)C2(Cl)Cl)ccc1Cl (relative stereo) [F2536, trans-2-(2-Chloro-5-(2,2-dichloro-3-(3,5-dichlorophenyl)cyclopropane-1-carboxamido)benzoyl)-N-isopropylhydrazine-1-carboxamide] | 50 to 100 | 50 to 100 | – | – | – | – |
| O=C(NNC(=S)NCC(F)(F)F)c1cc(NC(=O)[C@H]2[C@H](c3cc(Cl)cc(Cl)c3)C2(Cl)Cl)ccc1Cl (relative stereo) [F2539, trans-2,2-dichloro-N-(4-chloro-3-(2-((2,2,2-trifluoroethyl)carbamothioyl)hydrazine-1-carbonyl)phenyl)-3-(3,5-dichlorophenyl)cyclopropane-1-carboxamide] | 50 to 100 | 50 to 100 | – | – | – | – |
| CC(C)NC(=S)NNC(=O)c1cc(NC(=O)[C@H]2[C@H](c3cc(Cl)cc(Cl)c3)C2(Cl)Cl)ccc1Cl (relative stereo) [F2540, trans-2,2-Dichloro-N-(4-chloro-3-(2-(isopropylcarbamothioyl)hydrazine-1-carbonyl)phenyl)-3-(3,5-dichlorophenyl)cyclopropane-1-carboxamide] | 50 to 100 | 50 to 100 | – | – | – | – |
| O=C(NNCc1cc(F)ccc1F)c1cc(NC(=O)[C@H]2[C@H](c3cc(Cl)cc(Cl)c3)C2(Cl)Cl)ccc1Cl (relative stereo) [F2546, trans-2,2-Dichloro-N-(4-chloro-3-(2-(2,5-difluorobenzyl)hydrazine-1-carbonyl)phenyl)-3-(3,5-dichlorophenyl)cyclopropane-1-carboxamide] | 50 to 100 | 50 to 100 | – | – | – | – |
| CC(NNC(=O)c1cc(NC(=O)[C@H]2[C@H](c3cc(Cl)cc(Cl)c3)C2(Cl)Cl)ccc1Cl)c1ccccc1 (relative stereo) [F2548, trans-2,2-Dichloro-N-(4-chloro-3-(2-(1-phenylethyl)hydrazine-1-carbonyl)phenyl)-3-(3,5-dichlorophenyl)cyclopropane-1-carboxamide] | 50 to 100 | 50 to 100 | – | – | – | – |
| O=C(NNc1ccccc1)c1cc(NC(=O)[C@H]2[C@H](c3cc(Cl)cc(Cl)c3)C2(Cl)Cl)ccc1Cl (relative stereo) [F2556, trans-2,2-Dichloro-N-(4-chloro-3-(2-phenylhydrazine-1-carbonyl)phenyl)-3-(3,5-dichlorophenyl)cyclopropane-1-carboxamide] | 50 to 100 | 50 to 100 | – | – | – | – |
| O=C(NNc1ccc(Cl)c(Cl)c1)c1cc(NC(=O)[C@H]2[C@H](c3cc(Cl)cc(Cl)c3)C2(Cl)Cl)ccc1Cl (relative stereo) [F2560, trans-2,2-Dichloro-N-(4-chloro-3-(2-(3,4-dichlorophenyl)hydrazine-1-carbonyl)phenyl)-3-(3,5-dichlorophenyl)cyclopropane-1-carboxamide] | 50 to 100 | 50 to 100 | – | – | – | – |
| CC(C)(C)OC(=O)NNC(=O)c1cc(NC(=O)[C@H]2[C@H](c3cc(Cl)cc(Cl)c3)C2(Cl)Cl)ccc1Cl (relative stereo) [F2566, trans-tert-butyl 2-(2-chloro-5-(2,2-dichloro-3-(3,5-dichlorophenyl)cyclopropane-1-carboxamido)benzoyl)hydrazine-1-carboxylate] | 50 to 100 | 50 to 100 | 50 to 100 | 50 to 100 | – | – |
| O=C(NNC1CCC(F)(F)CC1)c1cc(NC(=O)[C@H]2[C@H](c3cc(Cl)cc(Cl)c3)C2(Cl)Cl)ccc1Cl (relative stereo) [F2569, trans-2,2-dichloro-N-(4-chloro-3-(2-(4,4-difluorocyclohexyl)hydrazine-1-carbonyl)phenyl)-3-(3,5-dichlorophenyl)cyclopropane-1-carboxamide] | 50 to 100 | 50 to 100 | 50 to 100 | 50 to 100 | – | – |
| O=C(NNCc1ccc(F)cc1)c1cc(NC(=O)[C@H]2[C@H](c3cc(Cl)cc(Cl)c3)C2(Cl)Cl)ccc1Cl (relative stereo) [F2570, trans-2,2-dichloro-N-(4-chloro-3-(2-(4-fluorobenzyl)hydrazine-1-carbonyl)phenyl)-3-(3,5-dichlorophenyl)cyclopropane-1-carboxamide] | 50 to 100 | 50 to 100 | 50 to 100 | 50 to 100 | – | – |
| O=C(NNc1ccccc1C(F)(F)F)c1cc(NC(=O)[C@H]2[C@H](c3cc(Cl)cc(Cl)c3)C2(Cl)Cl)ccc1Cl (relative stereo) [F2573, trans-2,2-Dichloro-N-(4-chloro-3-(2-(2-(trifluoromethyl)phenyl)hydrazine-1-carbonyl)phenyl)-3-(3,5-dichlorophenyl)cyclopropane-1-carboxamide] | 50 to 100 | 50 to 100 | 50 to 100 | 50 to 100 | – | – |
| Cc1cccc(N(C)NC(=O)c2cc(NC(=O)[C@H]3[C@H](c4cc(Cl)cc(Cl)c4)C3(Cl)Cl)ccc2Cl)c1 (relative stereo) [F2574, trans-2,2-Dichloro-N-(4-chloro-3-(2-methyl-2-(m-tolyl)hydrazine-1-carbonyl)phenyl)-3-(3,5-dichlorophenyl)cyclopropane-1-carboxamide] | 50 to 100 | 50 to 100 | 50 to 100 | 50 to 100 | – | – |
| Cc1ccc(NNC(=O)c2cc(NC(=O)[C@H]3[C@H](c4cc(Cl)cc(Cl)c4)C3(Cl)Cl)ccc2Cl)cc1 (relative stereo) [F2575, trans-2,2-Dichloro-N-(4-chloro-3-(2-(p-tolyl)hydrazine-1-carbonyl)phenyl)-3-(3,5-dichlorophenyl)cyclopropane-1-carboxamide] | 50 to 100 | 50 to 100 | 50 to 100 | 50 to 100 | – | – |
| O=C(NN=Cc1nccs1)c1cc(NC(=O)[C@H]2[C@H](c3cc(Cl)cc(Cl)c3)C2(Cl)Cl)ccc1Cl (relative stereo) [F3006, trans-2,2-Dichloro-N-(4-chloro-3-(2-(thiazol-2-ylmethylene)hydrazine-1-carbonyl)phenyl)-3-(3,5-dichlorophenyl)cyclopropane-1-carboxamide] | 50 to 100 | 50 to 100 | 50 to 100 | 50 to 100 | – | – |
| O=C(NN=CC1CC1)c1cc(NC(=O)[C@H]2[C@H](c3cc(Cl)cc(Cl)c3)C2(Cl)Cl)ccc1Cl (relative stereo) [F3007, trans-2,2-Dichloro-N-(4-chloro-3-(2-(cyclopropylmethylene)hydrazine-1-carbonyl)phenyl)-3-(3,5-dichlorophenyl)cyclopropane-1-carboxamide] | 50 to 100 | 50 to 100 | 50 to 100 | 50 to 100 | – | – |
| O=C(Nc1ccc(F)cc1)c1cc(NC(=O)[C@H]2[C@H](c3cc(Cl)cc(Cl)c3)C2(Cl)Cl)ccc1F (single isomer, unassigned) [F1374] | – | – | – | – | 50 to 100 | 50 to 100 |
| O=C(Nc1ccc(F)cc1F)c1cc(NC(=O)[C@H]2[C@H](c3cc(Cl)cc(Cl)c3)C2(Cl)Cl)ccc1F (single isomer, unassigned) [F1375] | – | – | – | – | 50 to 100 | 50 to 100 |
